Columns and labels:
[1] = tested on: vessel endothelialization; assay: effect of corticosteroid on vessel endothelialization; assay type: in vivo; conditions: super high potency corticosteroid
[2] = tested on: inflammation; assay: effect of corticosteroid on inflammation; assay type: in vivo; conditions: super high potency corticosteroid

CC1CC2C3CCC4=CC(=O)C=CC4(C)C3(F)C(=O)CC2(C)C1(O)C(=O)CCl (centres unmarked) [clobetasone] was tested, and the vessel endothelialization [1] was “impairment of vessel endothelialization was observed” and the “effect with regard to inflammation” value [2] was “beneficial effect with regard to inflammation”.

Reference: patent publication US20090104240A1, “Dual Drug Formulations For Implantable Medical Devices For Treatment of Vascular Diseases” (Abbott Cardiovascular Systems Inc., priority 2007, published 2009)
